Measured values published in PMC5522071, “Preclinical development of G1T38: A novel, potent and selective inhibitor of cyclin dependent kinases 4/6 for use as an oral antineoplastic in patients with CDK4/6 sensitive tumors” (Oncotarget, 2017).
Read-outs that look alike come from different tables or passages of the source.

Columns and labels:
H1975 xenograft = assay: H1975 NSCLC xenograft model; format: in vivo, mice
Source text: To evaluate the efficacy of G1T38 in combination with EGFR inhibitors, the H1975 xenograft model was utilized. H1975 is a human NSCLC that harbors the […] mutations rendering resistance to erlotinib treatment.
Afatinib is an irreversible second generation pan-ErbB inhibitor developed as a first-line treatment of patients with metastatic NSCLC whose tumors harbor EGFR mutations or deletions as well as in patients with metastatic disease that progressed after platinum-based chemotherapy.
Female NCI Ath/nu mice were implanted with H1975 NSC lung adenocarcinoma model. Once tumors reached an average size of 100- 150 mm^3, mice were randomized into treatment cohorts. Mice were orally administered daily afatinib (20 mg/kg, Genentech/OSI), erlotinib (70 mg/kg, LC Labs), or G1T38 (50 or 100 mg/kg), as single agents or in combination (G1T38 + erlotinib or G1T38 + afatinib) for the duration of the study. Tumors were measured twice weekly until mice reached tumor burden of 1500 mm^3.

ER+ MCF7 xenograft = assay: MCF-7 breast cancer xenograft model; format: in vivo, mice; settings: for tumor growth inhibition (TGI): after 27 days of treatment
Description: Tumors were measured every 3 to 4 days during treatment for up to 20 days post-treatment. […] South Texas Accelerated Research Therapeutics (START; San Antonio, Texas) evaluated the antitumor activity of G1T38 in a START Cell-Based Xenograft (START-CBX) tumor model, MCF-7, representing human breast cancer. Data collected from this efficacy study included animal weights, observations, and tumor dimensions. This information was used to determine agent tolerability based on weight change and gross physiologic changes, and anticancer activity based on tumor growth inhibition or regression. Study endpoint was Day 60. MCF-7 cells were harvested from culture and injected into immune-deficient mice and the study initiated at a mean tumor volume of approximately 150-250 mm^3. […] Tumor growth inhibition (%TGI) was calculated using the following equation: %TGI=(1-(((TVtmtfinal-TVtmtinitial))/((AVERAGE(TVctlfinal))-(AVERAGE(TVctlinital)))))*100.

[1] = set-up: method as in earlier work; settings: Rat; cited from earlier work
neutrophils = assay: Peripheral blood analysis, 28 days daily oral dosing
[2] = set-up: method as in earlier work; settings: Mouse; cited from earlier work
7-day continuous oral PK = settings: C57BL/6, mouse, plasma
[3] = set-up: method as in earlier work; settings: Dog; cited from earlier work
[4] = cited from earlier work

## C#Cc1cccc(Nc2ncnc3cc(OCCOC)c(OCCOC)cc23)c1 [erlotinib, reference compound]
H1975 xenograft; 70 mg/kg daily
  difference from vehicle treated mice: no significant difference

## CN(C)C/C=C/C(=O)Nc1cc2c(Nc3ccc(F)c(Cl)c3)ncnc2cc1O[C@H]1CCOC1 [afatinib, reference compound]
H1975 xenograft; afatinib only cohort, 20 mg/kg
  time at which tumors began to regrow: ≤ 14 days

## CC/C(=C(\c1ccccc1)c1ccc(/C=C/C(=O)O)cc1)c1ccccc1 [GW5638, reference compound]
ER+ MCF7 xenograft; G1T38 25 or 50 mg/kg alone, GW5638 25 mg/kg alone
  TGI as single agents (GW5638 study): modest TGI

## CC(=O)c1c(C)c2cnc(Nc3ccc(N4CCNCC4)cn3)nc2n(C2CCCC2)c1=O [palbociclib]
[1]
  T1/2: 2.4 to 4.9 h
neutrophils
  decrease in neutrophils compared with G1T38: similar
[2]
  T1/2: 2.5 to 4.2 h
ER+ MCF7 xenograft; 10 mg/kg once daily oral
  tumor growth inhibition (TGI): 18%
ER+ MCF7 xenograft; 50 mg/kg once daily oral
  tumor growth inhibition (TGI): 66%
ER+ MCF7 xenograft; 100 mg/kg daily oral
  time to tumor regression: ≤ 10 days
ER+ MCF7 xenograft; 100 mg/kg once daily oral
  tumor growth inhibition (TGI): 87%
7-day continuous oral PK
  concentration at 24 h: ~0.6 µM
[3]
  T1/2: 20.7 h
[4]; Human
  T1/2: 29 h
[4]; in humans
  half-life: > 24 h
